Results: PubChem BioAssay AID248 (DTP/NCI, 2004)
Values joined by “and” are separate entries in the source; they are usually repeats but may differ in a detail not shown here. Identical values can stand only once. Inconclusive results and toxic doses are left out.

Test system: L1210 leukemia ip in BDF1 mice, survival T/C
Experiment: NCI In Vivo Anticancer Drug Screen. Data for tumor model L1210 Leukemia (intraperitoneal) in B6D2F1 (BDF1) mice
Details: endpoint: mean survival time, higher = longer survival
Outline: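 Tumor was transplanted into mice, which were then dosed with test compound or vehicle alone. Survival was recorded for each group, and the treated figure was expressed relative to the control figure.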

CC[C@@]1(O)C(=O)OCc2c1cc1n(c2=O)Cc2cc3ccccc3nc2-1
T/C (dose: 0.05 mg/kg/injection, schedule: Q01DX Z (ip), vehicle: carboxymethylcellulose (CMC)): 94 % of control
T/C (dose: 0.1 mg/kg/injection, schedule: Q01DX Z (ip), vehicle: carboxymethylcellulose (CMC)): 97 % of control
T/C (dose: 0.12 mg/kg/injection, schedule: Q01DX009 (ip), vehicle: saline): 105 % of control and 108 % of control
T/C (dose: 0.12 mg/kg/injection, schedule: Q#A X Z (ip), vehicle: saline): 122 % of control
T/C (dose: 0.13 mg/kg/injection, schedule: Q01DX Z (ip), vehicle: water): 105 % of control
T/C (dose: 0.2 mg/kg/injection, schedule: Q01DX Z (ip), vehicle: saline): 118 % of control
T/C (dose: 0.22 mg/kg/injection, schedule: Q01DX Z (ip), vehicle: water): 103 % of control
T/C (dose: 0.22 mg/kg/injection, schedule: Q03DX Z (ip), vehicle: saline): 103 % of control
T/C (dose: 0.25 mg/kg/injection, schedule: Q01DX006 (iv), vehicle: saline): 103 % of control
T/C (dose: 0.25 mg/kg/injection, schedule: Q01DX009 (ip), vehicle: saline): 94 % of control
T/C (dose: 0.25 mg/kg/injection, schedule: Q01DX Z (im), vehicle: saline): 108 % of control
T/C (dose: 0.25 mg/kg/injection, schedule: Q01DX Z (sc), vehicle: saline): 113 % of control
T/C (dose: 0.25 mg/kg/injection, schedule: Q## X Z (ip), vehicle: saline): 106 % of control
T/C (dose: 0.25 mg/kg/injection, schedule: Q#A X Z (ip), vehicle: saline): 154 % of control
T/C (dose: 0.33 mg/kg/injection, schedule: Q03DX Z (ip), vehicle: saline): 111 % of control
T/C (dose: 0.36 mg/kg/injection, schedule: Q01DX Z (ip), vehicle: water): 116 % of control
T/C (dose: 0.5 mg/kg/injection, schedule: Q01DX001 (ip), vehicle: saline): 107 % of control
T/C (dose: 0.5 mg/kg/injection, schedule: Q01DX006 (iv), vehicle: saline): 116 % of control
T/C (dose: 0.5 mg/kg/injection, schedule: Q01DX009 (ip), vehicle: saline): 111 % of control
T/C (dose: 0.5 mg/kg/injection, schedule: Q01DX Z (ip), vehicle: carboxymethylcellulose (CMC)): 163 % of control
T/C (dose: 0.5 mg/kg/injection, schedule: Q01DX Z (oral), vehicle: saline): 120 % of control
T/C (dose: 0.5 mg/kg/injection, schedule: Q01DX Z (sc), vehicle: saline): 118 % of control
T/C (dose: 0.5 mg/kg/injection, schedule: Q03DX Z (ip), vehicle: saline): 108 % of control
T/C (dose: 0.6 mg/kg/injection, schedule: Q01DX Z (ip), vehicle: water): 156 % of control
T/C (dose: 0.75 mg/kg/injection, schedule: Q01DX009 (ip), vehicle: saline): 94 % of control and 95 % of control
T/C (dose: 0.75 mg/kg/injection, schedule: Q03DX Z (ip), vehicle: saline): 114 % of control
T/C (dose: 1.0 mg/kg/injection, schedule: Q01DX001 (ip), vehicle: saline): 107 % of control
T/C (dose: 1.0 mg/kg/injection, schedule: Q01DX006 (iv), vehicle: saline): 114 % of control
T/C (dose: 1.0 mg/kg/injection, schedule: Q01DX009 (ip), vehicle: saline): 97 % of control
T/C (dose: 1.0 mg/kg/injection, schedule: Q01DX010 (ip), vehicle: saline): 153 % of control
T/C (dose: 1.0 mg/kg/injection, schedule: Q01DX010 (iv), vehicle: saline): 117 % of control
T/C (dose: 1.0 mg/kg/injection, schedule: Q01DX Z (ip), vehicle: carboxymethylcellulose (CMC)): 166 % of control
T/C (dose: 1.0 mg/kg/injection, schedule: Q01DX Z (ip), vehicle: saline): 158 % of control
T/C (dose: 1.0 mg/kg/injection, schedule: Q01DX Z (ip), vehicle: water): 171 % of control
T/C (dose: 1.0 mg/kg/injection, schedule: Q01DX Z (oral), vehicle: saline): 109 % of control
T/C (dose: 1.0 mg/kg/injection, schedule: Q#A X Z (ip), vehicle: saline): 185 % of control
T/C (dose: 1.25 mg/kg/injection, schedule: Q04DX003 (ip), vehicle: Klucel (hydroxypropylcellulose) (HPC)): 113 % of control
T/C (dose: 1.5 mg/kg/injection, schedule: Q03DX Z (ip), vehicle: saline): 120 % of control
T/C (dose: 1.5 mg/kg/injection, schedule: Q#A X Z (ip), vehicle: saline): 104 % of control
T/C (dose: 1.6 mg/kg/injection, schedule: Q01DX Z (ip), vehicle: saline): 196 % of control
T/C (dose: 2.0 mg/kg/injection, schedule: Q01DX001 (ip), vehicle: saline): 100 % of control and 124 % of control
T/C (dose: 2.0 mg/kg/injection, schedule: Q01DX006 (iv), vehicle: saline): 109 % of control
T/C (dose: 2.0 mg/kg/injection, schedule: Q01DX010 (ip), vehicle: saline): 93 % of control
T/C (dose: 2.0 mg/kg/injection, schedule: Q01DX Z (im), vehicle: saline): 94 % of control and 118 % of control
T/C (dose: 2.0 mg/kg/injection, schedule: Q01DX Z (ip), vehicle: saline): 122 % of control
T/C (dose: 2.0 mg/kg/injection, schedule: Q01DX Z (oral), vehicle: saline): 120 % of control
T/C (dose: 2.0 mg/kg/injection, schedule: Q07DX Z (ip), vehicle: saline): 124 % of control
T/C (dose: 2.0 mg/kg/injection, schedule: Q## X Z (ip), vehicle: saline): 98 % of control
T/C (dose: 2.25 mg/kg/injection, schedule: Q#A X Z (ip), vehicle: saline): 93 % of control
T/C (dose: 2.5 mg/kg/injection, schedule: Q01DX001 (ip), vehicle: saline): 116 % of control and 202 % of control
T/C (dose: 3.0 mg/kg/injection, schedule: Q01DX006 (iv), vehicle: saline): 120 % of control
T/C (dose: 3.0 mg/kg/injection, schedule: Q01DX Z (oral), vehicle: saline): 120 % of control
T/C (dose: 3.0 mg/kg/injection, schedule: Q03DX Z (ip), vehicle: saline): 155 % of control
T/C (dose: 3.2 mg/kg/injection, schedule: Q01DX Z (ip), vehicle: saline): 121 % of control
T/C (dose: 4.0 mg/kg/injection, schedule: Q01DX001 (ip), vehicle: saline): 105 % of control
T/C (dose: 4.0 mg/kg/injection, schedule: Q01DX010 (iv), vehicle: saline): 108 % of control
T/C (dose: 4.0 mg/kg/injection, schedule: Q01DX Z (ip), vehicle: saline): 97 % of control
T/C (dose: 4.0 mg/kg/injection, schedule: Q01DX Z (oral), vehicle: saline): 118 % of control and 119 % of control
T/C (dose: 4.5 mg/kg/injection, schedule: Q01DX006 (iv), vehicle: saline): 122 % of control
T/C (dose: 4.5 mg/kg/injection, schedule: Q01DX Z (im), vehicle: saline): 117 % of control
T/C (dose: 4.5 mg/kg/injection, schedule: Q01DX Z (sc), vehicle: saline): 175 % of control
T/C (dose: 4.8 mg/kg/injection, schedule: Q01DX Z (ip), vehicle: saline): 95 % of control
T/C (dose: 5.0 mg/kg/injection, schedule: Q04DX003 (ip), vehicle: Klucel (hydroxypropylcellulose) (HPC)): 96 % of control
T/C (dose: 6.0 mg/kg/injection, schedule: Q03DX Z (ip), vehicle: saline): 152 % of control
T/C (dose: 6.5 mg/kg/injection, schedule: Q01DX006 (iv), vehicle: saline): 170 % of control
T/C (dose: 6.5 mg/kg/injection, schedule: Q01DX Z (sc), vehicle: saline): 157 % of control
T/C (dose: 8.0 mg/kg/injection, schedule: Q01DX001 (ip), vehicle: saline): 109 % of control
T/C (dose: 8.6 mg/kg/injection, schedule: Q03DX Z (ip), vehicle: saline): 194 % of control
T/C (dose: 9.5 mg/kg/injection, schedule: Q01DX006 (iv), vehicle: saline): 157 % of control
T/C (dose: 10.0 mg/kg/injection, schedule: Q04DX003 (ip), vehicle: Klucel (hydroxypropylcellulose) (HPC)): 110 % of control
T/C (dose: 13.0 mg/kg/injection, schedule: Q03DX Z (ip), vehicle: saline): 124 % of control
T/C (dose: 16.0 mg/kg/injection, schedule: Q07DX Z (ip), vehicle: saline): 158 % of control and 213 % of control
T/C (dose: 19.0 mg/kg/injection, schedule: Q03DX Z (ip), vehicle: saline): 93 % of control
T/C (dose: 20.0 mg/kg/injection, schedule: Q04DX003 (ip), vehicle: Klucel (hydroxypropylcellulose) (HPC)): 117 % of control
T/C (dose: 24.0 mg/kg/injection, schedule: Q01DX001 (ip), vehicle: saline): 111 % of control
T/C (dose: 24.0 mg/kg/injection, schedule: Q07DX Z (ip), vehicle: saline): 158 % of control
T/C (dose: 35.0 mg/kg/injection, schedule: Q01DX001 (ip), vehicle: saline): 122 % of control
T/C (dose: 50.0 mg/kg/injection, schedule: Q07DX Z (ip), vehicle: saline): 100 % of control
T/C (dose: 125.0 micrograms/kg/injection, schedule: Q01DX001 (ip), vehicle: saline): 103 % of control
T/C (dose: 125.0 micrograms/kg/injection, schedule: Q01DX Z (ip), vehicle: saline): 107 % of control
T/C (dose: 156.0 micrograms/kg/injection, schedule: Q01DX001 (ip), vehicle: saline): 107 % of control
T/C (dose: 187.0 micrograms/kg/injection, schedule: Q01DX001 (ip), vehicle: saline): 103 % of control
T/C (dose: 250.0 micrograms/kg/injection, schedule: Q01DX Z (ip), vehicle: saline): 101 % of control
T/C (dose: 281.0 micrograms/kg/injection, schedule: Q01DX001 (ip), vehicle: saline): 105 % of control
T/C (dose: 310.0 micrograms/kg/injection, schedule: Q01DX001 (ip), vehicle: saline): 101 % of control
T/C (dose: 421.0 micrograms/kg/injection, schedule: Q01DX001 (ip), vehicle: saline): 116 % of control
T/C (dose: 500.0 micrograms/kg/injection, schedule: Q01DX Z (ip), vehicle: saline): 107 % of control
T/C (dose: 620.0 micrograms/kg/injection, schedule: Q01DX001 (ip), vehicle: saline): 107 % of control
T/C (dose: 1250.0 micrograms/kg/injection, schedule: Q01DX001 (ip), vehicle: saline): 110 % of control
T/C (dose: 2000.0 micrograms/kg/injection, schedule: Q01DX Z (ip), vehicle: saline): 222 % of control
T/C (dose: 4000.0 micrograms/kg/injection, schedule: Q01DX Z (ip), vehicle: saline): 205 % of control
